Data: the supplement of paper PMC10307832

Key:
Test in all cases: relative viability (nuclei count vs DMSO), 5 days (fraction); higher = more cells survive
Sunitinib + Vorinostat = compound: CCN(CC)CCNC(=O)c1c(C)[nH]c(/C=C2\C(=O)Nc3ccc(F)cc32)c1C [Sunitinib] + O=C(CCCCCCC(=O)Nc1ccccc1)NO [Vorinostat] (partner 1 µM)
Method in brief: (§1)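 One day after seeding in 1536-well plates, lung cancer cell lines were dosed by pin tool. Dosing was either single-drug or a fixed anchor-drug dose plus five library-drug doses (not always all listed) in √10 steps. After 5 days, nuclei were stained in one fix-and-stain step and counted on 4× images, and relative viability is the nuclei count of treated wells over that of vehicle wells, given as the median of duplicate plates.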

Sunitinib + Linsitinib = compound: CCN(CC)CCNC(=O)c1c(C)[nH]c(/C=C2\C(=O)Nc3ccc(F)cc32)c1C [Sunitinib] + C[C@]1(O)C[C@@H](c2nc(-c3ccc4ccc(-c5ccccc5)nc4c3)c3c(N)nccn32)C1 [Linsitinib] (partner 1 µM)
Method in brief: as §1

Sunitinib + Navitoclax = compound: CCN(CC)CCNC(=O)c1c(C)[nH]c(/C=C2\C(=O)Nc3ccc(F)cc32)c1C [Sunitinib] + CC1(C)CCC(c2ccc(Cl)cc2)=C(CN2CCN(c3ccc(C(=O)NS(=O)(=O)c4ccc(N[C@H](CCN5CCOCC5)CSc5ccccc5)c(S(=O)(=O)C(F)(F)F)c4)cc3)CC2)C1 [Navitoclax] (partner 0.5 µM)
Method in brief: as §1

Sunitinib + Alpelisib = compound: CCN(CC)CCNC(=O)c1c(C)[nH]c(/C=C2\C(=O)Nc3ccc(F)cc32)c1C [Sunitinib] + Cc1nc(NC(=O)N2CCC[C@H]2C(N)=O)sc1-c1ccnc(C(C)(C)C(F)(F)F)c1 [Alpelisib] (partner 2 µM)
Method in brief: as §1

Row | Cell Line | relative viability (Sunitinib + Vorinostat; first compound 0.02 µM) | relative viability (Sunitinib + Vorinostat; first compound 0.06325 µM) | relative viability (Sunitinib + Vorinostat; first compound 0.2 µM) | relative viability (Sunitinib + Vorinostat; first compound 0.6325 µM) | relative viability (Sunitinib + Vorinostat; first compound 2 µM) | relative viability (Sunitinib + Linsitinib; first compound 0.06325 µM) | relative viability (Sunitinib + Linsitinib; first compound 0.2 µM) | relative viability (Sunitinib + Linsitinib; first compound 0.6325 µM) | relative viability (Sunitinib + Linsitinib; first compound 2 µM) | relative viability (Sunitinib + Navitoclax; first compound 0.02 µM) | relative viability (Sunitinib + Navitoclax; first compound 0.06325 µM) | relative viability (Sunitinib + Navitoclax; first compound 0.2 µM) | relative viability (Sunitinib + Navitoclax; first compound 0.6325 µM) | relative viability (Sunitinib + Navitoclax; first compound 2 µM) | relative viability (Sunitinib + Alpelisib; first compound 0.02 µM) | relative viability (Sunitinib + Alpelisib; first compound 0.06325 µM) | relative viability (Sunitinib + Alpelisib; first compound 0.2 µM) | relative viability (Sunitinib + Alpelisib; first compound 0.6325 µM) | relative viability (Sunitinib + Alpelisib; first compound 2 µM) | relative viability (Sunitinib + Linsitinib; first compound 0.02 µM)
1 | PC-14 | 0.689 | 0.74 | 0.853 | 0.834 | 0.665 | 1.05 | 1.04 | 1.02 | 0.881 | 0.987 | 0.999 | 1.1 | 0.996 | 0.958 | 0.95 | 0.874 | 1.05 | 1.08 | 0.908 | 
2 | COR-L23 | 0.457 | 0.515 | 0.484 | 0.464 | 0.503 | 1.1 | 1 | 1.02 | 0.999 | 0.966 | 1.08 | 1.04 | 1.21 | 1.15 | 0.897 | 0.724 | 0.935 | 0.917 | 0.891 | 0.902
3 | NCI-H647 | 0.469 | 0.572 | 0.795 | 0.648 | 0.643 | 1.23 | 1.28 | 0.991 | 0.969 | 0.988 | 1.18 |  | 1.24 | 1.22 | 1.05 | 1.04 | 1.36 | 1.21 | 0.82 | 
4 | NCI-H2347 | 0.648 | 0.653 | 0.723 | 0.554 | 0.757 | 0.991 | 1.11 | 0.991 | 0.978 | 0.888 | 0.825 | 0.836 | 0.817 | 0.818 | 0.996 | 1.03 | 1.13 | 1.09 | 0.947 | 0.93
5 | EKVX | 0.802 |  | 0.882 | 0.806 | 0.728 | 1.04 | 1.18 | 1.12 | 1.06 | 0.608 | 0.595 | 1.13 |  | 0.968 | 0.907 |  |  | 0.996 | 0.909 | 1.07
6 | HCC-78 | 0.427 | 0.418 | 0.531 | 0.481 | 0.465 |  | 0.501 |  | 0.565 | 0.756 |  | 0.684 |  | 0.869 | 0.364 |  | 0.321 |  | 0.419 | 0.472
7 | NCI-H1915 | 0.483 | 0.538 | 0.562 | 0.5 | 0.505 | 1.15 | 1.14 | 1.09 | 1.11 | 0.764 | 0.765 | 0.833 | 0.815 | 0.805 |  | 1.09 | 1.13 | 1.06 | 1.11 | 1.08
8 | NCI-H596 | 0.734 | 0.541 | 0.594 | 0.637 | 0.564 | 1.02 | 1.21 | 1.14 | 0.911 | 0.987 | 0.802 | 1.14 | 0.945 | 0.956 | 0.476 | 0.596 | 0.604 | 0.485 | 0.42 | 1
9 | EMC-BAC-2 | 0.458 | 0.464 | 0.506 | 0.506 | 0.505 | 0.817 | 0.896 | 0.865 | 0.778 | 1.15 |  | 1.31 | 1.09 | 1.22 | 0.712 | 0.742 | 0.901 | 0.791 | 0.72 | 0.769
10 | BEN | 0.535 | 0.637 | 0.571 | 0.574 | 0.533 | 0.862 | 1.07 | 0.951 | 0.896 | 0.0567 | 0.0707 | 0.072 | 0.0591 | 0.0799 | 0.898 | 1.1 | 1.04 | 0.991 | 0.955 | 
11 | NCI-H727 | 1.12 | 1.22 | 1.18 | 1.18 | 1.25 | 0.363 | 0.239 | 0.311 | 0.292 | 0.433 | 0.45 | 0.454 | 0.523 | 0.396 | 0.532 | 0.546 | 0.647 | 0.559 | 0.537 | 0.146
12 | H3255 | 0.672 | 0.573 | 0.835 | 0.827 | 0.822 | 1.02 |  | 1.01 | 1.03 | 0.477 | 0.52 | 0.634 | 0.548 | 0.519 | 0.696 | 0.756 | 0.776 | 0.891 | 0.707 | 0.884
13 | NCI-H1993 | 0.857 | 0.727 | 0.911 | 0.747 | 0.9 | 0.744 |  | 0.8 | 0.664 | 0.923 | 1.01 |  | 0.872 | 0.905 | 0.674 | 0.697 | 0.716 | 0.689 | 0.68 | 0.711
14 | NCI-H2085 | 0.784 | 0.827 | 0.84 | 0.813 | 0.807 | 0.923 | 0.939 | 0.945 | 1.02 |  | 1.19 | 1.23 | 1.18 | 1.28 | 0.998 |  | 0.992 | 0.988 | 0.978 | 
15 | NCI-H838 | 0.715 | 0.803 | 0.758 | 0.725 | 0.65 | 0.987 | 1.06 | 1.07 | 0.85 | 1.1 | 1.23 | 1.28 | 1.13 | 0.91 |  | 0.999 | 1.16 | 0.992 |  | 0.916
16 | NCI-H1944 | 0.547 | 0.736 | 0.659 | 0.625 | 0.559 | 1.18 | 1.28 | 1.25 | 1.16 | 1.03 | 1.04 | 1.1 |  | 1 | 0.798 | 0.883 | 1.02 | 0.964 |  | 1.12
17 | NCI-H1395 | 0.715 | 0.715 | 0.757 | 0.897 | 0.983 | 1.2 | 1.37 | 1.19 |  | 1.03 | 1.21 | 1.34 | 1.27 | 1.17 | 0.995 | 1.14 | 1.72 | 1.31 | 1.05 | 0.975
